Literature values in US20240180852A1, “TREATMENT FOR MALIGNANT PLEURAL EFFUSION IN HUMANS” (Signpath Pharma, Inc., priority 2021, published 2024).

Columns and labels:
[1] = in vivo

COc1cc(C=CC(=O)CC(=O)C=Cc2ccc(O)c(OC)c2)ccc1O [curcumin, 1,7-bis(4-hydroxy-3-methoxyphenyl)-1,6-heptadiene-3,5-dione]
bioavailability [1]: low bioavailability
solubility: low solubility
